Experimental data from patent US9211296B2, “Therapeutic compounds for blocking DNA synthesis of POX viruses” (priority 2007, dated 2015).

Biological target: vaccinia virus DNA synthesis (viral DNA polymerase and its associated factors) (Vaccinia virus, UniProt P06856)
Format: biochemical
Settings: read-out: DNA Synthesis IC50
Wherever Blocking the replication of vaccinia virus in cells is given: test concentration or dose not given here.

SMILES | IC50 [µM]
CCN1CCN(c2ccc(Nc3ccnc4cc5ccccc5cc34)cc2)CC1 | 0.5
BrCc1ccc(-c2noc(-c3ccncc3)n2)cc1 | 1.3
CC[n+]1cc(/C=C2\SC=CN2C)c(C)c2cc(OC)c3ccccc3c21 | 3.5
COc1ccc2c(c1)C=C/C(=C\c1sc3ccccc3[n+]1C)N2C | 4
CC(C)Nc1ccc(Nc2ccnc3cc4ccccc4cc23)cc1 | 4.1
CCOC(=O)c1cnc2c(C)c(C)ccc2c1NCCCN(C)C | 5
CC1=CC(C)(C)N=C(Nc2nc(C)c3cc(C)cc(C)c3n2)N1 | 5.3
CN(C)CCc1cc2c(c3c1ccc1ccccc13)OCO2 | 5.4
CCN(CC)CCCNc1nc2cc(OC)c(OC)cc2c2nc(-c3ccccc3)nn12 | 5.9
Cc1cc(NCCN2CCCCC2)c2ccc3ccccc3c2n1 | 6
OC(CN1CCNCC1)Cn1c2ccc(Br)cc2c2cc(Br)ccc21 (stereo not shown) | 6.3
CC1CCCC(C)N1CCNc1nc2ccccc2c2nc(-c3ccccc3)nn12 (stereo not shown) | 7.3
O=C(O)c1ccc(CS(=O)(=O)c2ccccc2)o1 | 7.4
COc1ccc2nc(NC(=N)N)nc(C)c2c1 | 7.4
O=C(NCCCN1CCCC1)c1cc2c(Cl)nc3ccccc3c2s1 | 10
Cc1ccc2nc(Cl)c3cc(C(=O)N(CCN(C)C)Cc4ccco4)sc3c2c1 | 10
CN(C)CC/N=c1\cc(-c2ccccc2)oc2ccc(Cl)cc12 [drawing 93] | 6.7

Tested on: vaccinia virus
Format: cell-based
Settings: not given

SMILES | Blocking the replication of vaccinia virus in cells
CN(C)CC/N=c1\cc(-c2ccccc2)oc2ccc(Cl)cc12 [I, (E)-N-1-(6-chloro-2-phenyl-4H-chromen-4-ylidene)-N2,N2-dimethylethane-1,2-diamine] | effective in blocking the replication of vaccinia virus in cells
Cc1ccc2oc(-c3ccccc3)c/c(=N\CCO)c2c1 [II, (E)-2-(6-methyl-2-phenyl-4H-chromen-4-ylideneamino)ethanol] | effective in blocking the replication of vaccinia virus in cells
CCC/N=c1\cc(-c2ccccc2)oc2ccc(C)cc12 [III, (E)-N-(6-methyl-2-phenyl-4H-chromen-4-ylidene)propan-1-amine] | effective in blocking the replication of vaccinia virus in cells
O=C(O)c1ccccc1Nc1cccc(C(F)(F)F)c1 [IV, Flufenamic Acid] | effective in blocking the replication of vaccinia virus in cells
O=C(O)Cn1c2ccc(Cl)cc2c2nc3ccccc3nc21 [IX, 6H-Indolo[2,3-b]quinoxaline-6-acetic acid, 9-chloro-(9CI)] | effective in blocking the replication of vaccinia virus in cells
O=c1cc(-c2ccc(O)cc2)oc2cc(O)cc(O)c12 [V, Apigenin] | effective in blocking the replication of vaccinia virus in cells
Cn1cc(C2=C(c3cn(CCCSC(=N)N)c4ccccc34)C(=O)NC2=O)c2ccccc21 [VI, Carbamimidothioic acid, 3-[3-[2,5-dihydro-4-(1-methyl-1H-indol-3-yl)-2,5-dioxo-1H-pyrrol-3-yl]-1H-indol-1-yl]propyl ester (9CI)] | effective in blocking the replication of vaccinia virus in cells
COc1ccc(-c2cc3ccccn3c2C(=O)c2cccnc2)c(OC)c1 [VII, (2-(2,4-dimethoxyphenyl)indolizin-3-yl)(pyridin-3-yl)methanone] | effective in blocking the replication of vaccinia virus in cells
COC(=O)c1cccc2c1-c1ccccc1/C2=N\O [VIII, (E)-methyl 9-(hydroxyimino)-9H-fluorene-4-carboxylate] | effective in blocking the replication of vaccinia virus in cells
c1ccc2nc3c(nc2c1)c1ccccc1n3CCN1CCOCC1 [X, 6H-Indolo[2,3-b]quinoxaline-6-(2-morpholinoethy)] | effective in blocking the replication of vaccinia virus in cells
CCS(=O)(=O)N1CCN=C1SCc1ccc(Cl)cc1Cl [XI, 1H-Imidazole, 2-[[(2,4-dichlorophenyl)methyl]thio]-1-(ethylsulfonyl)-4,5-dihydro-(9CI)] | effective in blocking the replication of vaccinia virus in cells
Cc1cc(OC(=O)c2ccco2)nc(SCc2c(Cl)cccc2Cl)n1 [XII, 2-(2,6-dichlorobenzylthio)-6-methylpyrimidin-4-yl furan-2-carboxylate] | effective in blocking the replication of vaccinia virus in cells
N=C1/C(=C/c2coc3ccccc3c2=O)C(=O)N=C2SC=NN12 [XIII, (Z)-5-imino-6-((4-oxo-4H-chromen-3-yl)methylene)-5H-[1,3,4]thiadiazolo[3,2-a]pyrimidin-7(6H)-one] | effective in blocking the replication of vaccinia virus in cells
Cc1ccc2c(Sc3ccc(Cl)cc3)c(C(=O)O)[nH]c2c1 [XIV, 3-(4-chlorophenylthio)-6-methyl-1H-indole-2-carboxylic acid] | effective in blocking the replication of vaccinia virus in cells
Cc1csc2c(N3CCN(C(=O)NC(C)(C)C)CC3)ncnc12 [XIX, N-tert-butyl-4-(7-methylthieno[3,2-d]pyrimidin-4-yl)piperazine-1-carboxamide] | effective in blocking the replication of vaccinia virus in cells
Cc1cc(N)c2cc(OCCOc3ccc4nc(C)cc(N)c4c3)ccc2n1 [XL, 6,6′-(ethane-1,2-diylbis(oxy))bis(2-methylquinolin-4-amine)] | effective in blocking the replication of vaccinia virus in cells

SMILES | Blocking the replication of vaccinia virus in cells
O=S(=O)(c1cc(Cl)ccc1O)c1cc(Cl)ccc1O [XLI, 2,2′-sulfonylbis(4-chlorophenol)] | effective in blocking the replication of vaccinia virus in cells
Oc1ccc([Te]CCNCC[Te]c2ccc(O)cc2)cc1 [XLII, 4,4′-(2,2′-azanediylbis(ethane-2,1-diyl)bis(tellanediyl))diphenol] | effective in blocking the replication of vaccinia virus in cells
Cc1c(N=Cc2cc(Br)cc(Br)c2O)cccc1C(=O)O [XV, Benzoic acid, 3-[[(3,5-dibromo-2-hydroxyphenyl)methylene]amino]-2-methyl-(9CI)] | effective in blocking the replication of vaccinia virus in cells
Cc1cc(/N=C/c2cc(Cl)cc(Cl)c2O)no1 [XVI, (E)-2,4-dichloro-6-((5-methylisoxazol-3-ylimino)methyl)phenol] | effective in blocking the replication of vaccinia virus in cells
CC(=O)n1c2ccccc2c2nc(C)sc21 [XVII, 4H-Thiazolo[5,4-b]indole, 4-acetyl-2-methyl-(9CI)] | effective in blocking the replication of vaccinia virus in cells
CCN1CCCC1CNC(=O)c1ccc2c(c1)sc1nc(-c3cccc(OC)c3)cn12 (stereo not shown) [XVIII, Imidazo[2,1-b]benzothiazole-7-carboxamide, N-(1-ethyl-2-pyrrolidyl)methyl-2-(3-methoxyphenyl)-(9CI)] | effective in blocking the replication of vaccinia virus in cells
O=C(Nc1ccccc1C(=O)O)OCC1c2ccccc2-c2ccccc21 [XXI, Benzoic acid, 2-[[(9H-fluoren-9-ylmethoxy)carbonyl]amino]-(9CI)] | effective in blocking the replication of vaccinia virus in cells
COc1ccc(Nc2nc(N3CCN(C)CC3)nc3ccccc23)c(OC)c1 [XXII, 4-Quinazolinamine, N-(2,4-dimethoxyphenyl)-2-(4-methyl-1-piperazinyl)-(9CI)] | effective in blocking the replication of vaccinia virus in cells
COc1ccc2c(C)nc(N=C(N)N=C(C)c3ccccc3C(=O)O)nc2c1 [XXIII, Benzoic acid, 2-[1-[[amino[(7-methoxy-4-methyl-2-quinazolinyl)imino]methyl]imino]ethyl]-(9CI)] | effective in blocking the replication of vaccinia virus in cells
CCn1c2ccccc2c2ccc(/C=N/n3cnnc3)cc21 [XXIV, (E)-N-((9-ethyl-9H-carbazol-2-yl)methylene)-4H-1,2,4-triazol-4-amine] | effective in blocking the replication of vaccinia virus in cells
CN(C)CCOC(=O)c1ccc2[nH]c3c(c2c1)CSCC3 [XXIX, Thiopyrano[4,3-b]indole-8-carboxylic acid, 1,3,4,5-tetrahydro-, 2-(dimethylamino)ethyl ester (7CI,8CI,9CI)] | effective in blocking the replication of vaccinia virus in cells
O=C(C=Cc1ccco1)C=Cc1ccco1 [XXVI, 1,4-Pentadien-3-one, 1,5-di-2-furanyl-(9CI)] | effective in blocking the replication of vaccinia virus in cells
COC(=O)c1c(NC(=O)c2ccc(OC)cc2)sc2c1CCN(C(C)C)C2.Cl [XXVII, Methyl 6-isopropyl-2-(4-methoxyphenylamido)-4,5,6,7-tetrahydrothieno[2,3-c]pyridine-3-carboxylate hydrochloride] | effective in blocking the replication of vaccinia virus in cells
CCOC(=O)c1c(NC(=O)/C=C/C(=O)O)sc(C)c1-c1ccccc1 [XXVIII, (E)-4-(3-(ethoxycarbonyl)-5-methyl-4-phenylthiophen-2-ylamino)-4-oxobut-2-enoic acid] | effective in blocking the replication of vaccinia virus in cells
CN(C)c1ccc(-c2cccc(-c3ccc(N(C)C)cc3)[o+]2)cc1 [XXX, 2,6-bis(4-(dimethylamino)phenyl)pyrylium] | effective in blocking the replication of vaccinia virus in cells
CCN1C(=O)/C(=C/C=C/c2ccco2)C(=O)NC1=S [XXXI, (E)-1-ethyl-5-((E)-3-(furan-2-yl)allylidene)-2-thioxodihydropyrimidine-4,6(1H,5H)-dione] | effective in blocking the replication of vaccinia virus in cells
